From PubChem BioAssay AID1996
Converted amounts (≈) assume the structure as drawn.

Conditions: buffer; pH 7.4; 200.0 µM

Question: Which solubility kinetic does the source give for `Br.COc1ccc(C2=CSC3=NCCN23)cc1Br` here?
Answer: The solubility kinetic was 54.4 µg/mL.

Question: Which solubility kinetic does the source give for `Nc1nc(NCCOCCO)nc(NC2CCCCC2)c1[N+](=O)[O-]` here?
Answer: Its solubility kinetic is greater than 51.1 µg/mL.

Question: With `CN(Cc1nc(Cc2cccc(F)c2)no1)CC1CCOCC1` as the compound, how does the solubility kinetic read?
Answer: Its solubility kinetic is 41.1 µg/mL (≈ 129 µM).

Question: With `Cc1ccc(OCCCCN2CCc3ccccc3C2)cc1.Cl` as the compound, how does the solubility kinetic read?
Answer: Its solubility kinetic is 22.8 µg/mL.

Question: Which solubility kinetic does the source give for `O=C(Cc1cccc(F)c1)Nc1ccc2c(c1)CCC2` here?
Answer: Its solubility kinetic is 1.2 µg/mL (≈ 4.46 µM).

Question: With `O=C(COc1ccc2ccc(=O)oc2c1)NC1CCCC1` as the compound, how does the solubility kinetic read?
Answer: Its solubility kinetic is greater than 43.1 µg/mL.

Question: With `COc1ccc(S(=O)(=O)NC2CCCCCC2)c(OC)c1` as the compound, how does the solubility kinetic read?
Answer: The solubility kinetic was 9.4 µg/mL (≈ 30 µM).

Question: For `O=C([O-])Cc1csc(-c2cccc(Oc3ccccc3)c2)n1.[Na+]`, which solubility kinetic is on record?
Answer: Its solubility kinetic is 49.3 µg/mL.

Question: For `CCC(=O)OCC(=O)Nc1ncc(C(F)(F)F)cc1Cl`, which solubility kinetic is on record?
Answer: Its solubility kinetic is greater than 46.6 µg/mL.

Question: Which solubility kinetic does the source give for `COCCNC(=O)CN1C(=O)NC2(CCCCCC2)C1=O` here?
Answer: Its solubility kinetic is greater than 44.6 µg/mL.

Question: Which solubility kinetic does the source give for `CC[C@H](C)[C@H](NC(=O)c1ccc(Cl)cc1)C(=O)OCC(=O)c1c(N)n(C)c(=O)n(C)c1=O` here?
Answer: The solubility kinetic was 27.7 µg/mL (≈ 59.6 µM).

Question: Which solubility kinetic does the source give for `N#C/C(=C/c1ccncc1)c1nc2ccccc2c(=O)[nH]1` here?
Answer: The solubility kinetic was greater than 41.1 µg/mL.

Question: With `CC(C)(c1ccccc1)c1ccc(OCCN2CCCC2)cc1` as the compound, how does the solubility kinetic read?
Answer: The solubility kinetic was 29.2 µg/mL (≈ 94.4 µM).

Question: Which solubility kinetic does the source give for `CN(NC(=O)c1ccccc1F)c1ccc([N+](=O)[O-])cn1` here?
Answer: Its solubility kinetic is greater than 43.5 µg/mL.

Question: Which solubility kinetic does the source give for `O=C(COc1cc(F)ccc1[N+](=O)[O-])NCC1CCCO1` (stereo unspecified) here?
Answer: The solubility kinetic was greater than 44.7 µg/mL.

Question: With `O=C(Nc1nccs1)c1c(O)c2c([nH]c1=O)CCCC2` as the compound, how does the solubility kinetic read?
Answer: The solubility kinetic was 0.9 µg/mL (≈ 3.09 µM).

Question: With `COc1ccccc1NC(=O)C1CC(C)OC1=O` (stereo unspecified) as the compound, how does the solubility kinetic read?
Answer: Its solubility kinetic is greater than 37.4 µg/mL.

Question: Which solubility kinetic does the source give for `Cc1csc(CN(C)C(=O)C2CCC(=O)N(CCN(C)C)C2)n1` (stereo unspecified) here?
Answer: The solubility kinetic was 32.9 µg/mL (≈ 97.2 µM).

Question: For `Cc1ccc(C)c(OCC(=O)Nc2ccccc2N2CCCC2)c1`, which solubility kinetic is on record?
Answer: Its solubility kinetic is 1.3 µg/mL (≈ 4.01 µM).

Question: For `Nc1ccccc1C(=O)NCCCN1CCOCC1`, which solubility kinetic is on record?
Answer: The solubility kinetic was greater than 39.5 µg/mL.

Question: For `CSc1ccc(CN(C)C(=O)c2cc(Cl)c3c(c2)OCCO3)cc1`, which solubility kinetic is on record?
Answer: The solubility kinetic was greater than 54.6 µg/mL.

Question: With `O=C(CSc1ccccc1F)NC(=O)c1ccc(Cl)cc1` as the compound, how does the solubility kinetic read?
Answer: The solubility kinetic was 8.5 µg/mL (≈ 26.3 µM).

Question: For `O=C(NCCc1cccc(Cl)c1)c1ccc2c(c1)OCO2`, which solubility kinetic is on record?
Answer: Its solubility kinetic is 5.8 µg/mL (≈ 19.1 µM).

Question: For `COc1ccc(CCNc2ccc([N+](=O)[O-])cn2)cc1`, which solubility kinetic is on record?
Answer: Its solubility kinetic is 7.1 µg/mL (≈ 26 µM).

Question: For `CC(C)(C)NC(=O)NC(=O)CN1CC=C(c2ccccc2)CC1`, which solubility kinetic is on record?
Answer: Its solubility kinetic is 38.9 µg/mL (≈ 123 µM).

Question: With `CC(NC(=O)COC(=O)C1CC2CCCC(C1)C2=O)c1ccccc1` (stereo unspecified) as the compound, how does the solubility kinetic read?
Answer: The solubility kinetic was greater than 51.5 µg/mL.

Question: Which solubility kinetic does the source give for `CCCCOc1ccc(C(=O)CCN2CCCCC2)cc1.Cl` here?
Answer: The solubility kinetic was greater than 48.9 µg/mL.

Question: With `O=C(CCNC(=O)c1ccco1)Nc1cccc(C(F)(F)F)c1` as the compound, how does the solubility kinetic read?
Answer: Its solubility kinetic is greater than 48.9 µg/mL.

Question: Which solubility kinetic does the source give for `Fc1ccccc1COc1ccc(C(=S)N2CCCC2)cc1` here?
Answer: The solubility kinetic was 3.5 µg/mL (≈ 11.1 µM).

Question: With `CC(=O)Oc1ccc(C(=O)Nc2cc(C)on2)cc1` as the compound, how does the solubility kinetic read?
Answer: Its solubility kinetic is 38.1 µg/mL (≈ 146 µM).

Question: Which solubility kinetic does the source give for `COc1ccc(Cn2c(C)nc3ccc([N+](=O)[O-])cc3c2=O)cc1` here?
Answer: Its solubility kinetic is 3.8 µg/mL (≈ 11.7 µM).

Question: For `CC(OC(=O)c1ccc(NC(N)=O)cc1)C(=O)Nc1ccc2c(c1)OCCO2` (stereo unspecified), which solubility kinetic is on record?
Answer: The solubility kinetic was greater than 57.8 µg/mL.

Question: With `CN(C)S(=O)(=O)N1CCN(C(=O)c2ccc3c(c2)OCO3)CC1` as the compound, how does the solubility kinetic read?
Answer: Its solubility kinetic is greater than 51.2 µg/mL.

Question: With `Cc1ccc(S(=O)(=O)NCCC(=O)NC2CCCCCC2)cc1C` as the compound, how does the solubility kinetic read?
Answer: Its solubility kinetic is greater than 52.9 µg/mL.

Question: Which solubility kinetic does the source give for `CCOc1ccc(NC(=O)CSc2nncn2C)cc1` here?
Answer: The solubility kinetic was greater than 43.9 µg/mL.

Question: For `Cc1ccccc1C(=O)NC(=S)N(C)C1CCCCC1`, which solubility kinetic is on record?
Answer: The solubility kinetic was 41.4 µg/mL (≈ 143 µM).

Question: Which solubility kinetic does the source give for `Cc1nc2nc(N)nc(OCc3ccccc3)c2nc1C` here?
Answer: Its solubility kinetic is 41.6 µg/mL (≈ 148 µM).

Question: For `Cn1ccsc1=NC(=O)c1ccccc1OC(F)F`, which solubility kinetic is on record?
Answer: Its solubility kinetic is 38.7 µg/mL (≈ 136 µM).

Question: With `Cc1ccc(OCC(=O)Nc2ccon2)c([N+](=O)[O-])c1` as the compound, how does the solubility kinetic read?
Answer: The solubility kinetic was 4.5 µg/mL (≈ 16.2 µM).

Question: With `CN1CCN(C(=O)c2ccc(-c3ccc(Br)cc3)o2)CC1` as the compound, how does the solubility kinetic read?
Answer: The solubility kinetic was greater than 52.4 µg/mL.

Question: For `CCc1nc(N2CCN(C(C)=O)CC2)c2c3c(sc2n1)CCCC3`, which solubility kinetic is on record?
Answer: Its solubility kinetic is greater than 51.7 µg/mL.

Question: With `CC(C)C[C@H](NC(=O)Nc1ccc2c(c1)OCCO2)C(=O)O` as the compound, how does the solubility kinetic read?
Answer: Its solubility kinetic is 41.1 µg/mL (≈ 133 µM).

Question: With `Cc1cccn2c(=O)c(C=O)c(NCc3ccccc3)nc12` as the compound, how does the solubility kinetic read?
Answer: The solubility kinetic was 0.2 µg/mL (≈ 0.682 µM).

Question: For `O=C(c1cc(Cl)ccc1OCc1ccccc1)N1CCOCC1`, which solubility kinetic is on record?
Answer: Its solubility kinetic is greater than 49.8 µg/mL.

Question: With `O=C(COC(=O)c1cc2ccccc2cc1O)Nc1ccccc1F` as the compound, how does the solubility kinetic read?
Answer: The solubility kinetic was 6.3 µg/mL (≈ 18.6 µM).

Question: Which solubility kinetic does the source give for `CC1CC(C)(C)NC(=S)N1CCC(=O)N1c2ccccc2CC1C` (stereo unspecified) here?
Answer: Its solubility kinetic is 5.3 µg/mL (≈ 15.3 µM).

Question: Which solubility kinetic does the source give for `CS(=O)(=O)c1ccc(Cl)c(NC(=O)Nc2ccccc2)c1` here?
Answer: The solubility kinetic was 5.1 µg/mL (≈ 15.7 µM).

Question: Which solubility kinetic does the source give for `CS(=O)(=O)N1CCn2c1nc1ccccc12` here?
Answer: Its solubility kinetic is greater than 35.6 µg/mL.

Question: Which solubility kinetic does the source give for `CC(C)OC(=O)CSc1nc(C(C)C)nc2ccccc12` here?
Answer: The solubility kinetic was 2.1 µg/mL (≈ 6.9 µM).

Question: Which solubility kinetic does the source give for `CC1CCc2c(C(=O)Nc3ccccn3)csc2C1` (stereo unspecified) here?
Answer: The solubility kinetic was 11.6 µg/mL (≈ 42.6 µM).

Question: For `COc1ccc(-c2cc(-c3ccc(O)cc3)nc(N)c2C#N)cc1OC`, which solubility kinetic is on record?
Answer: Its solubility kinetic is 1.7 µg/mL (≈ 4.89 µM).

Question: For `O=C(Nc1ccc2oc(=O)ccc2c1)c1ccc2ccccc2c1`, which solubility kinetic is on record?
Answer: Its solubility kinetic is less than 0.7 µg/mL.

Question: With `Cc1ccc2c(c1)N(CC(=O)N1CCCCCC1)C(=O)C(C)O2` (stereo unspecified) as the compound, how does the solubility kinetic read?
Answer: The solubility kinetic was greater than 47.5 µg/mL.

Question: With `O=C(O)/C=C/C(=O)NC1CC1` as the compound, how does the solubility kinetic read?
Answer: The solubility kinetic was greater than 23.3 µg/mL.

Question: With `Fc1cccc(CNC2CCN(CCc3ccccc3)CC2)c1` as the compound, how does the solubility kinetic read?
Answer: The solubility kinetic was 33.7 µg/mL (≈ 108 µM).

Question: For `CC(C)(C)C1COc2ccccc2N1C(=O)c1ccccc1Cl` (stereo unspecified), which solubility kinetic is on record?
Answer: The solubility kinetic was less than 0.7 µg/mL.

Question: For `O=C(NC1CCCCC1)C1CCN(c2ncccn2)CC1`, which solubility kinetic is on record?
Answer: The solubility kinetic was greater than 43.3 µg/mL.

Question: With `CC(C)CNC(=O)N1c2ccccc2Sc2ccccc21` as the compound, how does the solubility kinetic read?
Answer: Its solubility kinetic is 7.1 µg/mL (≈ 23.8 µM).

Question: Which solubility kinetic does the source give for `O=C(O)c1cccc(N(CCO)CCO)c1` here?
Answer: The solubility kinetic was greater than 33.8 µg/mL.

Question: For `Cc1cccc(N2CCN(C(=O)c3ccnn3C)CC2)c1C`, which solubility kinetic is on record?
Answer: Its solubility kinetic is greater than 44.8 µg/mL.

Question: For `Cn1cccc1C(=O)OCC(=O)Nc1sccc1C#N`, which solubility kinetic is on record?
Answer: The solubility kinetic was 4.2 µg/mL (≈ 14.5 µM).
